Marks after values point to notes of the source that are not given here.
Assays:
[1] = system: tibia fracture sites of the rabbits; experiment: Three-point bending force test at fracture sites of the rabbits; assay type: in vivo, New Zealand rabbits; conditions: n=5
Experimental: (§1) 1.1. Experimental Animal: New Zealand rabbits, each being male and having a weight of about 2 to 3 kg (12 to 16 weeks old) were used
(§2) 1.2. Experimental Grouping and Materials: experiments were divided into a control group (Control), a collagen sponge (CS) group, an ibandronate sodium (0.1 mg/kg IB) group, a group with a small dosage of ibandronate sodium+collagen sponge (SIB+CS, 0.125 mg IB), a group with a median dosage of ibandronte sodium+collagen sponge (MIB+CS, 0.25 mg IB), and a group with a large dosage of ibandronate sodium+collagen sponge (LIB+CS, 0.5 mg IB), in total 6 groups. 10 experimental animals are used for each group, […].
(§3) Preparation of materials for the SIB+CS group: 125 μl of 1 mg/ml IB was added into 600 ml of the enzymolysis solution of collagen to prepare a 50*25*5 mm collagen sponge;
(§4) Preparation of materials for the MIB+CS group: 250 μl of 1 mg/ml IB was added into 600 ml of the enzymolysis solution of collagen to prepare a 50*25*5 mm collagen sponge;
(§5) Preparation of materials for the LIB+CS group: 500 μl of 1 mg/ml IB was added into 600 ml of the enzymolysis solution of collagen to prepare a 50*25*5 mm collagen sponge.
Male New Zealand rabbits were anesthetized by marginal ear vein injection with sodium pentobarbital (3%, […]). After the anesthesia, the skin in the surgical area was depilated with 8% sodium sulfide and disinfected. The animals were fixed on their backs, and disinfected and covered with a sterile towel or sheet. A longitudinal incision was cut at the distal femur of the right leg near the patella. The patella was retracted to expose the inner and outer condyles of the distal femur. A 2 mm Kirschner wire was inserted retrogradely between the inner and outer condyles through an electric drill. The Kirschner wire went through the medullary cavity and came out of the skin from the proximal femur. The distal end of the Kirschner wire was cut off and ensured to be embedded under the surface of the knee joint. The knee was reset. An incision was made on the outer side of the distal femur, and the femur was exposed along the intermuscular space. Sufficient protection was provided for the surrounding soft tissues such as muscles and blood vessels. The femur was cut by a dental drill. The Control group and the IB group were not subjected to any treatment. The prepared materials for the CS group, the SIB+CS group, the MIB+CS group and the LIB+CS group were placed at the fracture sites of the animals, respectively. The incisions and the skin were washed with sterile normal saline and sutured with 5-0 nylon thread. Normal saline (0.1 ml/kg) and ibandronate sodium (0.1 ml/kg) were administered to the Control group and the IB group after surgery, respectively. All the animals were injected intramuscularly with buprenorphine (0.05 mg/kg) twice and with ciprofloxacin (10 mg/kg) once a day for 3 days after the surgery. All the animals were fed normally (lightless, quiet, at a temperature from 20 to 26° C., and at a humidity below 80%). X-ray photographs were taken on the day of surgery to check the condition of fracture apposition and alignment after the surgery. Further, half of the New Zealand rabbits were sacrificed at the 2nd week and the 4th week for detection, respectively.
3.2. Three-point bending force test at tibia fracture sites of the rabbits at the second week and the fourth week

fracture sites = experiment: Callus cross-sectional area in rabbit fracture healing experiment; assay type: in vivo, New Zealand rabbits; conditions: sponge placed at fracture site (IB group: 0.1 mg/kg IB after surgery), n=5
Experimental: as §1, §2, §3, §4, §5
Male New Zealand rabbits were anesthetized by marginal ear vein injection with sodium pentobarbital (3%, […]). After the anesthesia, the skin in the surgical area was depilated with 8% sodium sulfide and disinfected. […]

CCCCCN(C)CCC(O)(P(=O)(O)O)P(=O)(O)O [IB, ibandronate sodium]
Compressive Strength ([1]; 2nd week): 4.7 ± 1.8 Nmm | Elastic Modulus ([1]; 2nd week): 7.3 ± 2.2 MPa | Limit Load ([1]; 2nd week): 6.8 ± 1.7 N | Compressive Strength ([1]; 4th week): 64.6 ± 7.3^j Nmm | Elastic Modulus ([1]; 4th week): 88.2 ± 19.5 MPa | Limit Load ([1]; 4th week): 95.9 ± 7.04^i,j N | callus cross-sectional area (CSA) (fracture sites; 2nd week after surgery): 89.9 ± 3.6^a,h,i,j,k mm^2 | callus cross-sectional area (CSA) (fracture sites; 4th week after surgery): 120.5 ± 7.8^a,h,i,j,k mm^2

— patent US10046082B2, “Collagen sponge containing a drug for promoting fracture healing and method for preparing the same” (WUHAN VSD MEDICAL SCIENCE & TECHNOLOGY CO., LTD., priority 2015, dated 2018)
